According to the supplement of paper PMC10627819:

Key:
S. aureus DSM 20231 [1] = test: Bliss interaction score (quartile over a dose matrix) (fitness difference); higher = more antagonism (negative = synergy)
In short: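 Fitness here means normalised growth, inferred for single drugs from the combination data. Growth was OD595 at entry into stationary phase, divided by the plate's robust no-drug mean and capped at 1. The Bliss score is observed minus expected fitness, with the expectation being the product, and its quartiles span technical, biological and donor/recipient replicates.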

S. pneumoniae D39V = test: fitness (endpoint OD595 vs no drug) (fraction); higher = more growth
In short: (§1)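 Fitness expresses the optical density reached at the stationary-phase transition as a fraction of the robust mean of no-drug control wells. It is capped at 1. Measurements were OD595 every 30 min for 14 h at 37 °C after inoculation of 384-well plates at OD595 0.01 (30 µl, or 55 µl for S. pneumoniae), minus the first reading.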

S. aureus DSM 20231 [2] = test: as above
In short: as §1

S. aureus Newman = test: as above
In short: as §1
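Throughout, for Bliss interaction score (quartile over a dose matrix): first quartile when negative (synergy) and third quartile when positive (antagonism).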
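Throughout, for fitness (endpoint OD595 vs no drug): OD595 on entry to stationary phase over no-drug wells; at most 1.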

CN[C@@H]1[C@H](O[C@H]2[C@H](O[C@H]3[C@H](O)[C@@H](O)[C@H](N=C(N)N)[C@@H](O)[C@@H]3N=C(N)N)O[C@@H](C)[C@]2(O)C=O)O[C@@H](CO)[C@H](O)[C@H]1O [Streptomycin] + Cc1ccc(C(C)C)c(O)c1 [Thymol]
Details | Bliss interaction score
S. aureus DSM 20231 [1] | -0.425

CC(C)(O)c1ccccc1CC[C@@H](SCC1(CC(=O)O)CC1)c1cccc(/C=C/c2ccc3ccc(Cl)cc3n2)c1 [Montelukast] + Cn1nnc(-c2ccc(-c3ccc(N4C[C@H](CO)OC4=O)cc3F)cn2)n1 [Tedizolid]
Details | Bliss interaction score
S. aureus DSM 20231 [1] | -0.384

CC(C)(O)c1ccccc1CC[C@@H](SCC1(CC(=O)O)CC1)c1cccc(/C=C/c2ccc3ccc(Cl)cc3n2)c1 [Montelukast] + COc1cc(Cc2cnc(N)nc2N)cc(OC)c1OC [Trimethoprim]
Details | Bliss interaction score
S. aureus DSM 20231 [1] | -0.299

CO[C@@]12[C@H](COC(N)=O)C3=C(C(=O)C(C)=C(N)C3=O)N1C[C@@H]1N[C@@H]12 [Mitomycin C] + CN1C2=CC=CC=C2N=C3C1=CC=CC3=O [Pyocyanin]
fitness
Details | first compound 0.001075 µg/mL | first compound 0.00215 µg/mL | first compound 0.0043 µg/mL | first compound 0.0156 µg/mL | first compound 0.0312 µg/mL | first compound 0.0625 µg/mL
S. aureus DSM 20231 [2], partner 1.25 µg/mL | – | – | – | 0.704 | 0.73 | 0.573
S. aureus DSM 20231 [2], partner 2.5 µg/mL | – | – | – | 0.668 | 0.691 | 0.555
S. aureus DSM 20231 [2], partner 5 µg/mL | – | – | – | 0.547 | 0.543 | 0.414
S. aureus Newman, partner 1.25 µg/mL | – | – | – | 0.648 | 0.614 | 0.49
S. aureus Newman, partner 2.5 µg/mL | – | – | – | 0.558 | 0.58 | 0.406
S. aureus Newman, partner 5 µg/mL | – | – | – | 0.265 | 0.239 | 0.0918
S. pneumoniae D39V, partner 0.325 µg/mL | 0.964 | 0.984 | 0.847 | – | – | –
S. pneumoniae D39V, partner 0.65 µg/mL | 0.964 | 0.975 | 0.844 | – | – | –
S. pneumoniae D39V, partner 1.3 µg/mL | 0.726 | 0.721 | 0.621 | – | – | –

fitness, S. pneumoniae D39V, one replicate
Details | first compound 0.002 µg/mL | first compound 0.004 µg/mL | first compound 0.008 µg/mL
partner 0.325 µg/mL | 0.853 | 0.77 | 0.642
partner 0.65 µg/mL | 0.835 | 0.802 | 0.744

CC(C)(O)c1ccccc1CC[C@@H](SCC1(CC(=O)O)CC1)c1cccc(/C=C/c2ccc3ccc(Cl)cc3n2)c1 [Montelukast] + CN[C@@H]1[C@H](O[C@H]2[C@H](O[C@H]3[C@H](O)[C@@H](O)[C@H](N=C(N)N)[C@@H](O)[C@@H]3N=C(N)N)O[C@@H](C)[C@]2(O)C=O)O[C@@H](CO)[C@H](O)[C@H]1O [Streptomycin]
Details | Bliss interaction score
S. aureus DSM 20231 [1] | -0.394

CC(C)(O)c1ccccc1CC[C@@H](SCC1(CC(=O)O)CC1)c1cccc(/C=C/c2ccc3ccc(Cl)cc3n2)c1 [Montelukast] + CN[C@H](CC(C)C)C(=O)N[C@H]1C(=O)N[C@@H](CC(N)=O)C(=O)N[C@H]2C(=O)N[C@H]3C(=O)N[C@H](C(=O)N[C@H](C(=O)O)c4cc(O)cc(O)c4-c4cc3ccc4O)[C@H](O[C@H]3C[C@](C)(N)[C@@H](O)[C@H](C)O3)c3ccc(c(Cl)c3)Oc3cc2cc(c3O[C@@H]2O[C@H](CO)[C@@H](O)[C@H](O)[C@H]2O[C@H]2C[C@](C)(NCc3ccc(-c4ccc(Cl)cc4)cc3)[C@@H](O)[C@H](C)O2)Oc2ccc(cc2Cl)[C@H]1O [Oritavancin]
Details | Bliss interaction score
S. aureus DSM 20231 [1] | 0.247

CO[C@@]12[C@H](COC(N)=O)C3=C(C(=O)C(C)=C(N)C3=O)N1C[C@@H]1N[C@@H]12 [Mitomycin C] + CN(N=O)C(=O)N[C@@H](C=O)[C@@H](O)[C@H](O)[C@H](O)CO [Streptozotocin]
fitness
Details | first compound 0.001075 µg/mL | first compound 0.00215 µg/mL | first compound 0.0043 µg/mL | first compound 0.0156 µg/mL | first compound 0.0312 µg/mL | first compound 0.0625 µg/mL
S. aureus DSM 20231 [2], partner 0.15 µg/mL | – | – | – | 0.706 | 0.656 | 0.541
S. aureus DSM 20231 [2], partner 0.3 µg/mL | – | – | – | 0.633 | 0.645 | 0.51
S. aureus DSM 20231 [2], partner 0.6 µg/mL | – | – | – | 0.571 | 0.56 | 0.433
S. aureus Newman, partner 0.15 µg/mL | – | – | – | 0.654 | 0.578 | 0.433
S. aureus Newman, partner 0.3 µg/mL | – | – | – | 0.615 | 0.548 | 0.379
S. aureus Newman, partner 0.6 µg/mL | – | – | – | 0.462 | 0.381 | 0.185
S. pneumoniae D39V, partner 1.2 µg/mL | 0.899 | 0.84 | 0.74 | – | – | –
S. pneumoniae D39V, partner 2.4 µg/mL | 0.911 | 0.886 | 0.777 | – | – | –
S. pneumoniae D39V, partner 4.8 µg/mL | 0.915 | 0.848 | 0.603 | – | – | –

fitness, S. pneumoniae D39V, one replicate
Details | first compound 0.002 µg/mL | first compound 0.004 µg/mL | first compound 0.008 µg/mL
partner 1.2 µg/mL | 0.815 | 0.769 | 0.525
partner 2.4 µg/mL | 0.796 | 0.739 | 0.588
partner 4.8 µg/mL | 0.653 | 0.597 | 0.347

CO[C@@]12[C@H](COC(N)=O)C3=C(C(=O)C(C)=C(N)C3=O)N1C[C@@H]1N[C@@H]12 [Mitomycin C] + CCCCCCCCCC(=O)N[C@@H]1[C@H]([C@@H]([C@H](O[C@H]1OC2=C3C=C4C=C2OC5=C(C=C(C=C5)[C@H]([C@H]6C(=O)N[C@@H](C7=C(C(=CC(=C7)O)OC8[C@H]([C@H]([C@@H]([C@H](O8)CO)O)O)O)C9=C(C=CC(=C9)[C@H](C(=O)N6)NC(=O)[C@@H]4NC(=O)[C@@H]1C2=CC(=CC(=C2)OC2=C(C=CC(=C2)[C@H](C(=O)N[C@H](CC2=CC(=C(O3)C=C2)Cl)C(=O)N1)N)O)O)O)C(=O)O)O[C@H]1[C@@H]([C@H]([C@@H]([C@H](O1)CO)O)O)NC(=O)C)Cl)CO)O)O [Teicoplanin]
fitness, main component drawn
Details | first compound 0.0156 µg/mL | first compound 0.0312 µg/mL | first compound 0.0625 µg/mL
S. aureus DSM 20231 [2], partner 0.1562 µg/mL | 0.813 | 0.757 | 0.513
S. aureus DSM 20231 [2], partner 0.3125 µg/mL | 0.855 | 0.81 | 0.418
S. aureus DSM 20231 [2], partner 0.625 µg/mL | 0.902 | 0.814 | 0.255
S. aureus Newman, partner 0.1562 µg/mL | 0.741 | 0.655 | 0.429
S. aureus Newman, partner 0.3125 µg/mL | 0.753 | 0.582 | 0.296
S. aureus Newman, partner 0.625 µg/mL | 0.568 | 0.417 | 0.138

fitness, S. aureus Newman, one replicate, main component drawn
Details | first compound 0.0156 µg/mL | first compound 0.0312 µg/mL | first compound 0.0625 µg/mL
partner 0.62 µg/mL | 0.603 | 0.482 | 0.141
partner 1.24 µg/mL | 0.482 | 0.322 | 0.02
partner 2.48 µg/mL | 0.0779 | 0.119 | 0.0423

CO[C@@]12[C@H](COC(N)=O)C3=C(C(=O)C(C)=C(N)C3=O)N1C[C@@H]1N[C@@H]12 [Mitomycin C] + C[n+]1ccc(-c2cc[n+](C)cc2)cc1 [Paraquat]
fitness
Details | first compound 0.001075 µg/mL | first compound 0.00215 µg/mL | first compound 0.0043 µg/mL | first compound 0.0156 µg/mL | first compound 0.0312 µg/mL | first compound 0.0625 µg/mL
S. aureus DSM 20231 [2], partner 1.25 µg/mL | – | – | – | 0.717 | 0.684 | 0.563
S. aureus DSM 20231 [2], partner 2.5 µg/mL | – | – | – | 0.691 | 0.678 | 0.577
S. aureus DSM 20231 [2], partner 5 µg/mL | – | – | – | 0.668 | 0.67 | 0.557
S. aureus Newman, partner 1.25 µg/mL | – | – | – | 0.666 | 0.675 | 0.527
S. aureus Newman, partner 2.5 µg/mL | – | – | – | 0.675 | 0.651 | 0.527
S. aureus Newman, partner 5 µg/mL | – | – | – | 0.696 | 0.676 | 0.467
S. pneumoniae D39V, partner 1.5 µg/mL | 0.955 | 0.94 | 0.862 | – | – | –
S. pneumoniae D39V, partner 3 µg/mL | 0.954 | 0.911 | 0.842 | – | – | –
S. pneumoniae D39V, partner 6 µg/mL | 0.961 | 0.919 | 0.783 | – | – | –

fitness, S. pneumoniae D39V, one replicate
Details | first compound 0.002 µg/mL | first compound 0.004 µg/mL | first compound 0.008 µg/mL
partner 1.5 µg/mL | 0.852 | 0.77 | 0.553
partner 3 µg/mL | 0.862 | 0.781 | 0.592
partner 6 µg/mL | 0.867 | 0.778 | 0.558
